What follows are compounds tested on Aβ42 (assay: In vitro cell screening assay in H4 cells expressing human APP751: Aβ42 by sandwich ELISA). Conditions: Homo sapiens, compounds 0.003-10 μM, incubated overnight (16-18 h), sandwich ELISA of supernatant.
Assay type: cell-based
Outline: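 H4 neuroglioma cells stably expressing wild-type human APP751, switched to Pro293 medium and treated with compounds (0.003-10 μM, 0.33% DMSO) for 16-18 h at 37 °C. Supernatant Aβ42 quantified by sandwich ELISA (C-terminal capture, 4G8-HRP detection, A450); EC50 by sigmoidal fit normalized to DMSO and DAPT controls.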

Compound	EC50
COc1nc(C2=NOCC(c3cscn3)N2)ccc1-n1cnc(C)c1 (single isomer, unassigned; (+)) [Example 156A, (+)-3-(6-methoxy-5-(4-methyl-1H-imidazol-1-yl)pyridin-2-yl)-5-(thiazol-4-yl)-5,6-dihydro-4H-1,2,4-oxadiazine]	1730 nM
COc1cc(Cl)c2c(C3CON=C(c4ccc(-n5cnc(C)c5)c(OC)n4)N3)cn(C)c2c1 (single isomer, unassigned; (+)) [Example 261A, (+)-5-(4-chloro-6-methoxy-1-methyl-1H-indol-3-yl)-3-(6-methoxy-5-(4-methyl-1H-imidazol-1-yl)pyridin-2-yl)-5,6-dihydro-4H-1,2,4-oxadiazine]	38.7 nM

Same assay, conditions: compounds 0.003-10 μM, incubated overnight (16-18 h), sandwich ELISA of supernatant

Compound	EC50
COc1nc(C2=NOCC(c3cn(C)c4ncc(C(F)(F)F)cc34)N2)ccc1-n1cnc(C)c1 (single isomer, unassigned; (+)) [Example 206B, (+)-3-(6-methoxy-5-(4-methyl-1H-imidazol-1-yl)pyridin-2-yl)-5-(1-methyl-5-(trifluoromethyl)-1H-pyrrolo [2,3-b]pyridin-3-yl)-5,6-dihydro-4H-1,2,4-oxadiazine]	5 nM
COc1nc(C2=NOCC(c3ccc(C)cc3)N2)ccc1-n1cnc(C)c1 (single isomer, unassigned; (-)) [Example 227A, (−)-3-(6-methoxy-5-(4-methyl-1H-imidazol-1-yl)pyridin-2-yl)-5-(p-tolyl)-5,6-dihydro-4H-1,2,4-oxadiazine]	958 nM
COc1nc(C2=NOCC(c3ccccc3C)N2)ccc1-n1cnc(C)c1 (single isomer, unassigned; (-)) [Example 131B, (−)-3-(6-methoxy-5-(4-methyl-1H-imidazol-1-yl)pyridin-2-yl)-5-(o-tolyl)-5,6-dihydro-4H-1,2,4-oxadiazine]	> 3000 nM
COc1nc(C2=NOCC(c3ccc(Cl)c(Cl)c3)N2)ccc1-n1cnc(C)c1 (single isomer, unassigned; (+)) [Example 49B, (+)-5-(3,4-dichlorophenyl)-3-(6-methoxy-5-(4-methyl-1H-imidazol-1-yl)pyridin-2-yl)-5,6-dihydro-4H-1,2,4-oxadiazine]	11.4 nM
COc1ccc(C2CON=C(c3ccc(-n4cnc(C)c4)c(OC)n3)N2)cc1 (single isomer, unassigned; (+)) [Example 54B, (+)-3-(6-methoxy-5-(4-methyl-1H-imidazol-1-yl)pyridin-2-yl)-5-(4-methoxyphenyl)-5,6-dihydro-4H-1,2,4-oxadiazine]	97.4 nM
COc1nc(C2=NOCC(c3ccc(S(C)(=O)=O)cc3)N2)ccc1-n1cnc(C)c1 (single isomer, unassigned; (+)) [Example 217B, (+)-3-(6-methoxy-5-(4-methyl-1H-imidazol-1-yl)pyridin-2-yl)-5-(4-(methylsulfonyl)phenyl)-5,6-dihydro-4H-1,2,4-oxadiazine]	2050 nM
COc1nc(C2=NOCC(c3cn(C)c4cc(F)c(Cl)cc34)N2)ccc1-n1cnc(C)c1 (single isomer, unassigned; (-)) [Example 216A, (−)-5-(5-chloro-6-fluoro-1-methyl-1H-indol-3-yl)-3-(6-methoxy-5-(4-methyl-1H-imidazol-1-yl)pyridin-2-yl)-5,6-dihydro-4H-1,2,4-oxadiazine]	89.5 nM
COc1nc(C2=NOCC(c3cn(C)c4ccc(F)cc34)N2)ccc1-n1cnc(C)c1 (single isomer, unassigned; (-)) [Example 190A, (−)-5-(5-fluoro-1-methyl-1H-indol-3-yl)-3-(6-methoxy-5-(4-methyl-1H-imidazol-1-yl)pyridin-2-yl)-5,6-dihydro-4H-1,2,4-oxadiazine]	287 nM
COc1nc(C2=NOCC(c3cccc(C#N)c3)N2)ccc1-n1cnc(C)c1 (single isomer, unassigned; (-)) [Example 141A, (−)-3-(3-(6-methoxy-5-(4-methyl-1H-imidazol-1-yl)pyridin-2-yl)-5,6-dihydro-4H-1,2,4-oxadiazin-5-yl) benzonitrile]	> 3000 nM
COc1nc(C2=NOCC(C)N2)ccc1-n1cnc(C)c1 (single isomer, unassigned; (-)) [Example 149B, (−)-3-(6-methoxy-5-(4-methyl-1H-imidazol-1-yl)pyridin-2-yl)-5-methyl-5,6-dihydro-4H-1,2,4-oxadiazine]	> 3000 nM
COc1nc(C2=NOCC(C(C)(C)C)N2)ccc1-n1cnc(C)c1 (single isomer, unassigned; (-)) [Example 147A, (−)-5-(tert-butyl)-3-(6-methoxy-5-(4-methyl-1H-imidazol-1-yl)pyridin-2-yl)-5,6-dihydro-4H-1,2,4-oxadiazine]	130 nM
COc1nc(C2=NOCC(c3cn(C)c4ccc(C(F)(F)F)cc34)N2)ccc1-n1cnc(C)c1 (single isomer, unassigned; (+)) [Example 233B, (+)-3-(6-methoxy-5-(4-methyl-1H-imidazol-1-yl)pyridin-2-yl)-5-(1-methyl-5-(trifluoromethyl)-1H-indol-3-yl)-5,6-dihydro-4H-1,2,4-oxadiazine]	1.7 nM
COc1nc(C2=NOCC(c3cn(C)c4ccc(Cl)cc34)N2)ccc1-n1cnc(C)c1 (single isomer, unassigned; (-)) [Example 193A, (−)-5-(5-chloro-1-methyl-1H-indol-3-yl)-3-(6-methoxy-5-(4-methyl-1H-imidazol-1-yl)pyridin-2-yl)-5,6-dihydro-4H-1,2,4-oxadiazine]	71 nM
COc1nc(C2=NOCC(c3ccc(C(F)(F)F)cc3)N2)ccc1-n1cnc(C)c1 (single isomer, unassigned; (-)) [Example 59A, (−)-3-(6-methoxy-5-(4-methyl-1H-imidazol-1-yl)pyridin-2-yl)-5-(4-(trifluoromethyl)phenyl)-5,6-dihydro-4H-1,2,4-oxadiazine]	> 3000 nM
COc1nc(C2=NOCC(c3cccc(C(F)(F)F)c3)N2)ccc1-n1cnc(C)c1 (single isomer, unassigned; (-)) [Example 113A, (−)-3-(6-methoxy-5-(4-methyl-1H-imidazol-1-yl)pyridin-2-yl)-5-(3-(trifluoromethyl)phenyl)-5,6-dihydro-4H-1,2,4-oxadiazine]	> 3000 nM
COc1nc(C2=NOCC(c3oc4ccc(F)cc4c3C)N2)ccc1-n1cnc(C)c1 (single isomer, unassigned; (-)) [Example 101A, (−)-5-(5-fluoro-3-methylbenzofuran-2-yl)-3-(6-methoxy-5-(4-methyl-1H-imidazol-1-yl)pyridin-2-yl)-5,6-dihydro-4H-1,2,4-oxadiazine]	1570 nM
COc1nc(C2=NOCC(c3cn(C)c4ccccc34)N2C)ccc1-n1cnc(C)c1 (single isomer, unassigned; (+)) [Example 200A, (+)-3-(6-methoxy-5-(4-methyl-1H-imidazol-1-yl)pyridin-2-yl)-4-methyl-5-(1-methyl-1H-indol-3-yl)-5,6-dihydro-4H-1,2,4-oxadiazine]	154 nM

Results, then the compound that gave them:

EC50	Compound
9.5 nM	COc1nc(C2=NOCC(c3cc4cc(C5CC5)ccc4o3)N2)ccc1-n1cnc(C)c1 (single isomer, unassigned; (+)) [Example 234B, (+)-5-(5-cyclopropylbenzofuran-2-yl)-3-(6-methoxy-5-(4-methyl-1H-imidazol-1-yl)pyridin-2-yl)-5,6-dihydro-4H-1,2,4-oxadiazine]
> 3000 nM	COc1nc(C2=NOCC(c3ccc4nc(C)sc4c3)N2)ccc1-n1cnc(C)c1 (single isomer, unassigned; (-)) [Example 238A, (−)-3-(6-methoxy-5-(4-methyl-1H-imidazol-1-yl)pyridin-2-yl)-5-(2-methylbenzo[d]thiazol-6-yl)-5,6-dihydro-4H-1,2,4-oxadiazine]
425 nM	COc1nc(C2=NOCC(c3cc4cc(C5CC5)ccc4o3)N2)ccc1-n1cnc(C)c1 (single isomer, unassigned; (-)) [Example 234A, (−)-5-(5-cyclopropylbenzofuran-2-yl)-3-(6-methoxy-5-(4-methyl-1H-imidazol-1-yl)pyridin-2-yl)-5,6-dihydro-4H-1,2,4-oxadiazine]
4.9 nM	COc1nc(C2=NOCC(c3cn(C)c4cc(F)c(C)cc34)N2)ccc1-n1cnc(C)c1 (single isomer, unassigned; (+)) [Example 257B, (+)-5-(6-fluoro-1,5-dimethyl-1H-indol-3-yl)-3-(6-methoxy-5-(4-methyl-1H-imidazol-1-yl)pyridin-2-yl)-5,6-dihydro-4H-1,2,4-oxadiazine]
13.1 nM	COc1nc(C2=NOCC(c3ccc(Cl)c(C4CC4)c3)N2)ccc1-n1cnc(C)c1 (single isomer, unassigned; (+)) [Example 239B, (+)-5-(4-chloro-3-cyclopropylphenyl)-3-(6-methoxy-5-(4-methyl-1H-imidazol-1-yl)pyridin-2-yl)-5,6-dihydro-4H-1,2,4-oxadiazine]
9.2 nM	COc1nc(C2=NOCC(c3cc4ccc(C5CC5)cc4o3)N2)ccc1-n1cnc(C)c1 (single isomer, unassigned; (+)) [Example 236B, (+)-5-(6-cyclopropylbenzofuran-2-yl)-3-(6-methoxy-5-(4-methyl-1H-imidazol-1-yl)pyridin-2-yl)-5,6-dihydro-4H-1,2,4-oxadiazine]
5 nM	COc1nc(C2=NOCC(c3cn(C)c4ccc(Cl)c(F)c34)N2)ccc1-n1cnc(C)c1 (single isomer, unassigned; (+)) [Example 237A, (+)-5-(5-chloro-4-fluoro-1-methyl-1H-indol-3-yl)-3-(6-methoxy-5-(4-methyl-1H-imidazol-1-yl)pyridin-2-yl)-5,6-dihydro-4H-1,2,4-oxadiazine]
113 nM	COc1nc(C2=NOCC(c3ccc4nc(C)sc4c3)N2)ccc1-n1cnc(C)c1 (single isomer, unassigned; (+)) [Example 238B, (+)-3-(6-methoxy-5-(4-methyl-1H-imidazol-1-yl)pyridin-2-yl)-5-(2-methylbenzo[d]thiazol-6-yl)-5,6-dihydro-4H-1,2,4-oxadiazine]

— US9802927B2, “Oxadiazine compounds and methods of use thereof” (Denali Therapeutics, Inc., priority 2015, dated 2017)
